The target of one assay is T1, mTOR kinase (Homo sapiens, UniProt P42345).
T1 construct: purchased Millipore, US
The assay is described as follows: mTOR kinase TR-FRET assay. The assay is classed as biochemical. In short, it runs like this:
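TR-FRET with ULight-p70 S6K (Thr 389) peptide (50 nM) and 20 μM ATP in 50 mM HEPES pH 7.5, 1 mM EGTA, 3 mM MnCl2; compound pre-incubated with enzyme before substrate addition, reaction at rt, EDTA-stopped. Eu anti-phospho antibody read 665/615 nm; IC50 from sigmoidal dose-response fit.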
Background: In TR-FRET formats the signal depends on donor and acceptor labels being close together.

The target in another assay is T2, PI3Kα (Homo sapiens, UniProt P42336).
T2 construct: made in house; host or cells: SF9 cells
The assay can be described thus: PI3 Kinase alpha TR-FRET assay. It counts as biochemical. On the procedure: Compound inhibition for PI3Kα was determined in a homogeneous TR-FRET assay using a PI3Kα assay kit (Millipore, US, Catalog #33-016). The PI3 kinase catalyzes phosphorylation of […] (PIP2) to phosphatidylinositol 3,4,5-trisphosphate (PIP3) in the presence of ATP and Mg^2+. The PIP3 product is detected by displacement of biotin-PIP3 from an energy transfer complex consisting of Europium labeled anti-GST monoclonal antibody, a GST-tagged pleckstrin homology (PH) domain, biotinylated PIP3 and Streptavidin-Allophycocyanin (APC). Excitation of Europium in the complex results in an energy transfer to the APC and a fluorescence emission at 665 nm.
Compounds tested were dissolved in DMSO and directly distributed into 384-well plates at a volume of 0.5 μL. P110/P85a/PIP2 mixture (14.5 μL) was added to compound wells and incubated for 30 min at rt […]. P110/P85a was expressed in SF9 cells and purified in-house. 5 ng P110/P85a was used in the assay. The kinase reaction was started by the addition of ATP. The assay concentrations of both PIP2 and ATP were 40 μM. The reaction mixture was incubated for 30 min and was terminated by the addition of stop mix and detection mix. Fluorescence was measured at 615 and 665 nm upon excitation at 340 nm in a Victor V5 fluorometer (Perkin Elmer, US). The fluorescence emission ratio at 665 to 615 nm, proportional to the kinase activity, was plotted against the compound concentration to generate dose-response curves and IC50 values were determined.

Another assay deals with pERK in A375 cells. The assay is described as follows: In Cell Western (ICW) assay, pERK in A375 cells. The assay is classed as cell-based. The note with it: Homo sapiens, A-375, 3 h treatment. In short, it runs like this: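 After a 3 h compound treatment at 37 °C, fixed RKO or A375 cells were probed for phospho-ERK1/2 (T202/Y204), phospho-S6RP or phospho-AKT T308 and detected with a Eu-tagged anti-rabbit antibody (ex 340/em 615 nm), with Hoechst signal as the cell-number correction. Inhibition was referenced to DMSO, and IC50 values came from sigmoidal dose-response curves.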

Another assay addresses T3, B-RAFV600E (Homo sapiens, UniProt P15056, V600E).
T3 construct: purchased Millipore, USA 14-557
The assay can be described thus: B-RAFV600E radiometric assay. The note with it: read-out: Kinase assay B-Raf. It counts as biochemical. In short, it runs like this: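 B-RAFV600E was preincubated 45 min at rt with compound in 1% DMSO. MEK-K97M (0.5 μg), 5 μM final cold ATP and [γ-32P]ATP were then added for 2 h at rt. Phosphorylated MEK was captured on P81 paper and scintillation-counted; IC50 came from a sigmoidal dose-response fit.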

The subject of a further assay is A375 cells. The assay can be described thus: XTT assay for cell viability, A375 cells. It counts as cell-based. The note with it: Homo sapiens, A-375, 72 h. On the procedure:
Cell lines (A375 ATCC No. CRL-1619, A2058 ATCC No. CRL-11147 and RKO ATCC No. CRL-2577, American Type Culture Collection (ATCC), Manassas Va.) once attaining ˜80% confluency were trypsinized, centrifuged and resuspended in fresh media. Cells (1000-2000/per well) were seeded in 96-well plate and incubated over-night at 37° C. in a 5% CO2 incubator. Compound dilutions were prepared in 100% DMSO followed by dilutions in the respective media. The cells were treated with NCEs for 72 h at 37° C. in 5% CO2 incubator. After 72 h, freshly prepared XTT (1 mg/ml)/PMS (25 μM) solution was added, incubated for 2 to 3 h at 37° C. and the absorbance was measured at 450 nm using an ELISA plate reader. Keeping DMSO control as 100%, the effect of the compound to inhibit the cell proliferation was calculated and the GI50 values were determined using sigmoidal dose response curve fit in GraphPad Prism® v5 software.
A general note: Formazan colour is commonly taken as a measure of viable cells.

Experimental findings from patent US9499495B2, “Quinazolines and azaquinazolines as dual inhibitors of RAS/RAF/MEK/ERK and PI3K/AKT/PTEN/mTOR pathways” (Asana Biosciences, LLC, priority 2013, dated 2016) are described below.

T2 sequence (P42336 whole entry, species assumed): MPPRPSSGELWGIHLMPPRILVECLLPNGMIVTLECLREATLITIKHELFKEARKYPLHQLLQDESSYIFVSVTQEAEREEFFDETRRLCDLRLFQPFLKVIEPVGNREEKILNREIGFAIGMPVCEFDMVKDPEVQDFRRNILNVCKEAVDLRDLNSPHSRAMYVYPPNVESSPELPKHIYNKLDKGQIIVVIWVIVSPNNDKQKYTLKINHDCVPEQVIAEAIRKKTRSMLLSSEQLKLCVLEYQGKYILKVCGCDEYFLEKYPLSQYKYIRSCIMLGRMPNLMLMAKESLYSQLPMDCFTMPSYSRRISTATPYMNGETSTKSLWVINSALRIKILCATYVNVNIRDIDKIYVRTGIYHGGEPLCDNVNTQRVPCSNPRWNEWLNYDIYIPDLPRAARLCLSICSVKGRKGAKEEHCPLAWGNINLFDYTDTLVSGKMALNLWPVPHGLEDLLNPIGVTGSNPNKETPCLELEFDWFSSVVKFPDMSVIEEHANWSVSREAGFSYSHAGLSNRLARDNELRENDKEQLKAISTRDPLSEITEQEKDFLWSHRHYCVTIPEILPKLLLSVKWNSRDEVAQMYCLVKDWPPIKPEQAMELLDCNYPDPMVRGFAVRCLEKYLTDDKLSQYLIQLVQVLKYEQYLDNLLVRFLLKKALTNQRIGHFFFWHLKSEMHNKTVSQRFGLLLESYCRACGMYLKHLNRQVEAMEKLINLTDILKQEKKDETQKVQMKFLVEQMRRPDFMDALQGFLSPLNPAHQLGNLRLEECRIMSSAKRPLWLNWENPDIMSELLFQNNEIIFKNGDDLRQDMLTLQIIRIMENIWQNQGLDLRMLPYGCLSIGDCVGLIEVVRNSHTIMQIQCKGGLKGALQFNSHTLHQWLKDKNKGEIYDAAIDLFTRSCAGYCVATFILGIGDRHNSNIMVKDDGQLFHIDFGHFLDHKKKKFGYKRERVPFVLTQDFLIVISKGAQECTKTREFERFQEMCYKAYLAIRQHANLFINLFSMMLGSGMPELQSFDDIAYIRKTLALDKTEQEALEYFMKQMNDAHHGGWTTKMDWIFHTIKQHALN
T2 sequence (P27986 whole entry partner, species assumed): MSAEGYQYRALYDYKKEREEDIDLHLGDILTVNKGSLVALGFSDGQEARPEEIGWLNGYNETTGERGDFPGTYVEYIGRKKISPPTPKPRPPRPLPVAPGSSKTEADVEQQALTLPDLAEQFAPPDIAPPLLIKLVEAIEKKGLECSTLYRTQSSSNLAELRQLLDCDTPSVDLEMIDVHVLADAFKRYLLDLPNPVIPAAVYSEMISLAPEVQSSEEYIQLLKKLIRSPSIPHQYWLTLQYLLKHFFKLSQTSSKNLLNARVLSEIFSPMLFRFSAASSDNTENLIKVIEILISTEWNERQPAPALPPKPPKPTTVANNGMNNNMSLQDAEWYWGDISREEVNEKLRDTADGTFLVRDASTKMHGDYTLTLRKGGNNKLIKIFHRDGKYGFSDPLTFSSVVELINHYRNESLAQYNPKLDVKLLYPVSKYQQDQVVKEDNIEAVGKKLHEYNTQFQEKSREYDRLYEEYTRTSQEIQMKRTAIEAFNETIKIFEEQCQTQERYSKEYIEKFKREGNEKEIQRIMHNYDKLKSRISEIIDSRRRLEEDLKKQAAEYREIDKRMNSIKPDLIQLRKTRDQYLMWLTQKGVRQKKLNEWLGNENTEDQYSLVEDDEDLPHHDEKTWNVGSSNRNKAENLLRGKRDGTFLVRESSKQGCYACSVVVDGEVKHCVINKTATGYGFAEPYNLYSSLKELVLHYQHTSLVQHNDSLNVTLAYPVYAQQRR
T3 sequence (P15056 416-766 V600E limits assumed): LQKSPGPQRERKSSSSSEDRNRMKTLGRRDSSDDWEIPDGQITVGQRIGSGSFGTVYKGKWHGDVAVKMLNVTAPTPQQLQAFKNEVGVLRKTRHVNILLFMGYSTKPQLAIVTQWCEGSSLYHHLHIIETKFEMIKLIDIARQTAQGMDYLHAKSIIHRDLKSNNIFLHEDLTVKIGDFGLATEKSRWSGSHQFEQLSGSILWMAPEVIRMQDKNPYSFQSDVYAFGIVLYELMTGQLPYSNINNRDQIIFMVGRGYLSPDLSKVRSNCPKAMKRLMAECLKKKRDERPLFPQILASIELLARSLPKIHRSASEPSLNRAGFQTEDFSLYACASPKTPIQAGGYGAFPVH
T1 sequence (P42345 1362-2549 limits assumed): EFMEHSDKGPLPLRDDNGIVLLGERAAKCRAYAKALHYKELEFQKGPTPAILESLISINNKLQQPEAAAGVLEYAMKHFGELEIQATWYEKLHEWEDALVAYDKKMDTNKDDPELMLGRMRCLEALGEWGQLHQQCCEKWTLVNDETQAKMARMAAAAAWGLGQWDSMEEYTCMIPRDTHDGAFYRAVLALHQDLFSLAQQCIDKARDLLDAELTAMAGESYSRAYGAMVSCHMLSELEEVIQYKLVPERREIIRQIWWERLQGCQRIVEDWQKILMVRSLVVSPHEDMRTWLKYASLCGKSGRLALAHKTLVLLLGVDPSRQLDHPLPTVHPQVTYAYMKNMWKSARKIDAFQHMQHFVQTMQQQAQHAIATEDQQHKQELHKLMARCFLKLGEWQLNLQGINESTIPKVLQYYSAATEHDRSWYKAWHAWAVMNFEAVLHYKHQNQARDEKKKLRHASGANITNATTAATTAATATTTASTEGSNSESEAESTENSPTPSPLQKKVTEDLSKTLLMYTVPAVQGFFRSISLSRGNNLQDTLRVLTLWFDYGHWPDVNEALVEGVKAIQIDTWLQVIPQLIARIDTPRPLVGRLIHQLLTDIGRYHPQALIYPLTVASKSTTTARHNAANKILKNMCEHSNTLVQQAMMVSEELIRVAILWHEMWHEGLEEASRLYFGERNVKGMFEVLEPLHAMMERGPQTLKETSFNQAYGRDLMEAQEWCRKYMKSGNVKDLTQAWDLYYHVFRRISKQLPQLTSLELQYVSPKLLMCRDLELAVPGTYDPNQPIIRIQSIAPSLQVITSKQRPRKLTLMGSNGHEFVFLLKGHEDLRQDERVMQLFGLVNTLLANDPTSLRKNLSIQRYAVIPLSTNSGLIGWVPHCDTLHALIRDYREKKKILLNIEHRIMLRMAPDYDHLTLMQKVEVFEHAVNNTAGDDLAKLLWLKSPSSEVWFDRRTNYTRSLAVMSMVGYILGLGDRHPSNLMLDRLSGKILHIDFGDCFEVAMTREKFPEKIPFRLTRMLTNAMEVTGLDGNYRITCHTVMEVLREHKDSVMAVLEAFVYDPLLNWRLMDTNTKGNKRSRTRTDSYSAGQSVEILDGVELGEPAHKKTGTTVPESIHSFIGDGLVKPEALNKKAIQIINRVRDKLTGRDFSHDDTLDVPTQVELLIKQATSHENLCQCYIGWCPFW

For the compound `Cc1nc(N)ncc1-c1nc(N2CCOC[C@@H]2C)c2nc(-c3cccc(NS(=O)(=O)c4cc(F)ccc4F)c3F)ccc2n1` [Example 132, (S)-N-(3-(2-(2-amino-4-methylpyrimidin-5-yl)-4-(3-methylmorpholino)pyrido[3,2-d]pyrimidin-6-yl)-2-fluorophenyl)-2,5-difluorobenzenesulfonamide], the IC50 against mTOR kinase was 100 to 1000 nM; against PI3Kα, 1 to 100 nM; in the assay with pERK in A375 cells, 100 to 1000 nM; on B-RAFV600E, 1 to 100 nM.

`CCCS(=O)(=O)Nc1cccc(-c2cc(OC)c3nc(-c4cnc(N)cc4C(F)(F)F)nc(N4CCOCC4)c3c2)c1F` [Example 25, N-(3-(2-(6-amino-4-(trifluoromethyl)pyridin-3-yl)-8-methoxy-4-morpholinoquinazolin-6-yl)-2-fluorophenyl)propane-1-sulfonamide]: the IC50 against PI3Kα, in the assay on pERK in A375 cells and on B-RAFV600E was 100 to 1000 nM each time.

For the compound `NCCOc1cc(-c2cccc(NS(=O)(=O)CCCF)c2F)cc2c(N3CCOCC3)nc(-c3ccc(N)nc3)nc12` [Example 56, N-(3-(8-(2-aminoethoxy)-2-(6-aminopyridtn-3-yl)-4-morpholinoquinazolin-6-yl)-2-fluorophenyl)-3-fluoropropane-1-sulfonamide], the IC50 against mTOR kinase was 1 to 100 nM; at PI3Kα it was 100 to 1000 nM; in the assay with pERK in A375 cells, 1 to 100 nM; at B-RAFV600E, 1 to 100 nM.

Take `O=S(=O)(CCCF)Nc1cccc(-c2ccc3nc(-c4cnc5[nH]ccc5c4)nc(N4CCOCC4)c3n2)c1F` [Example 91, 3-fluoro-N-(2-fluoro-3-(4-morpholtno-2-(1H-pyrrolo[2,3-b]pyrldin-5-yl)pyrido[3,2-d]pyrimidin-6-yl)phenyl)propane-1-sulfonamide]: the IC50 against mTOR kinase, against PI3Kα and on B-RAFV600E was 1 to 100 nM each time.

`COc1cc(-c2c(F)ccc(NS(=O)(=O)CCCF)c2F)cc2c(N3CCOCC3)nc(-c3cnc(N)cc3C(F)(F)F)nc12` [Example 84, N-(3-(2-(6-amino-4-(trifluoromethyl)pyridin~3-yl)-8-methoxy-4-morpholinoquinazolin-6-yl)-2,4-difluorophenyl)-3-fluoropropane-1-sulfonamide]: the results for the IC50 against PI3Kα and at B-RAFV600E were 100 to 1000 nM and 1 to 100 nM, respectively.

Regarding `Nc1ncc(-c2nc(N3CCOCC3)c3nc(-c4cccc(NS(=O)(=O)c5c(F)cccc5F)c4F)ccc3n2)cn1` [Example 98, N-(3-(2-(2-aminopyrimidin-5-yl)-4-morpholinopyrido[3,2-d]pyrimidin-6-yl)-2-fluorophenyl)-2,6-difluorobenzenesulfonamide], the results for the IC50 on mTOR kinase, against PI3Kα and on B-RAFV600E were 100 to 1000 nM, 1 to 100 nM and 1 to 100 nM, respectively.

On to `CCCNc1ccc(-c2nc(N3CCOCC3)c3nc(-c4cccc(NS(=O)(=O)CCCF)c4F)ccc3n2)cn1` [Example 115, 3-fluoro-N-(2-fluoro-3-(4-morpholino-2-(6-(propylamino)pyridin-3-yl)pyrido[3,2-d]pyrimidin-6-yl)phenyl)propane-1-sulfonamide], for which the IC50 lay in the range of 100 to 1000 nM on mTOR kinase, 100 to 1000 nM against PI3Kα and 1 to 100 nM at B-RAFV600E.

With `CCCNc1ncc(-c2nc(N3CCOCC3)c3nc(-c4cccc(NS(=O)(=O)CCCF)c4F)ccc3n2)cn1` [Example 112, 3-fluoro-N-(2-fluoro-3-(4-morpholino-2-(2-(propylamino)pyrimidin-5-yl)pyrido[3,2-d]pyrimidin-6-yl)phenyl)propane-1-sulfonamide], the IC50 against PI3Kα lay in the range of 100 to 1000 nM; at B-RAFV600E it was 1 to 100 nM.

Take `CCCS(=O)(=O)Nc1cccc(-c2cc(OC)c3nc(-c4cnc(N)c(Cl)c4)nc(N4CCOCC4)c3c2)c1F` [Example 48, N-(3-(2-(6-amino-5-chloropyridin-3-yl)-8-methoxy-4-morpholinoquinazolin-6-yl)-2-fluorophenyl)propane-1-sulfonamide]: the IC50 lay within 100 to 1000 nM on PI3Kα and 1 to 100 nM at B-RAFV600E.

For the compound `C[C@@H]1COCCN1c1nc(-c2cnc(N)cc2C(F)(F)F)nc2ccc(-c3cccc(NS(=O)(=O)CCCF)c3F)nc12` [Example 107, (R)-N-(3-(2-(6-amlno-4-(trifluoromethyl)pyridin-3-yl)-4-(3-methylmorpholino)pyrido[3,2-d]pyrimidin-6-yl)-2-fluorophenyl)-3-fluoropropane-1-sulfonamide], the figures for the IC50 against PI3Kα and at B-RAFV600E were 100 to 1000 nM and 1 to 100 nM, respectively.

`CCCS(=O)(=O)Nc1cccc(-c2cc(OC)c3nc(-n4c(C(F)F)nc5ccccc54)nc(N4CCOCC4)c3c2)c1F` [Example 9, N-(3-(2-(2-(difluoromethyl)-1H-benzo[d]imidazol-1-yl)-8-methoxy-4-morpholinoquinazolin-6-yl)-2-fluorophenyl)propane-1-sulfonamide]: the IC50 in the assay on A375 cells was in the range of 100 to 1000 nM; against mTOR kinase it was 100 to 1000 nM; with pERK in A375 cells it was 100 to 1000 nM; on B-RAFV600E, 1 to 100 nM.

As for `O=S(=O)(CCCF)Nc1cccc(-c2ccc3nc(-c4cccc5[nH]ncc45)nc(N4CCOCC4)c3n2)c1F` [Example 89, N-(3-(2-(1H-indazol-4-yl)-4-morpholinopyrido[3,2-d]pyrimidin-6-yl)-2-fluorophenyl)-3-fluoropropane-1-sulfonamide], the IC50 is 100 to 1000 nM against mTOR kinase, 100 to 1000 nM against PI3Kα and 1 to 100 nM at B-RAFV600E.

With `COc1cc(-c2c(F)ccc(NS(=O)(=O)c3cc(F)ccc3F)c2F)cc2c(N3CCOCC3)nc(-c3ccc(N)nc3)nc12` [Example 78, N-(3-(2-(6-aminopyridin-3-yl)-8-methoxy-4-morpholinoquinazolin-6-yl)-2,4-difluorophenyl)-2,5-difluorobenzenesulfonamide], the IC50 lay in the range of 100 to 1000 nM with A375 cells, 100 to 1000 nM on mTOR kinase, 1 to 100 nM with pERK in A375 cells and 1 to 100 nM at B-RAFV600E.

As to `CCNc1ncc(-c2nc(N3CCOCC3)c3nc(-c4cccc(NS(=O)(=O)CCCF)c4F)ccc3n2)cn1` [Example 122, N-(3-(2-(2-(ethylamino)pyrimidin-5-yl)-4-morpholinopyrido[3,2-d]pyrimidin-6-yl)-2-fluorophenyl)-3-fluoropropane-1-sulfonamide], the IC50 on PI3Kα lay within 100 to 1000 nM; on B-RAFV600E, 1 to 100 nM.

As to `CCCS(=O)(=O)Nc1ccc(Cl)c(-c2cc(OC)c3nc(-c4ccc(N)nc4)nc(N4CCOCC4)c3c2)c1F` [Example 80, N-(3-(2-(6-aminopyridin-3-yl)-8-methoxy-4-morpholinoquinazolin-6-yl)-4-chloro-2-fluorophenyl)propane-1-sulfonamide], the IC50 in the assay with A375 cells fell in the range of 100 to 1000 nM; at mTOR kinase it was 100 to 1000 nM; in the assay with pERK in A375 cells, 100 to 1000 nM; on B-RAFV600E it was 1 to 100 nM.

Regarding `NC(=O)COc1cc(-c2cccc(NS(=O)(=O)CCCF)c2F)cc2c(N3CCOCC3)nc(-c3ccc(N)nc3)nc12` [Example 60, 2-((2-(6-aminopyridin-3-yl)-6-(2-fluoro-3-(3-fluoropropylsulfonamido)phenyl)-4-morpholino-quinazolin-8-yl)oxy)acetamide], the IC50 lay in the range of 1000 to 10000 nM in the assay with A375 cells, 1 to 100 nM at mTOR kinase, 1000 to 10000 nM in the assay with pERK in A375 cells and 1 to 100 nM at B-RAFV600E.
